Like-named read-outs stand apart in the source and are kept apart here.
What was measured:
[1] = system: TM90C2A (DHFR, folate pathway; compared with 3D7); assay: Cross-resistance EC50 assay, TM90C2A; format: cell-based; conditions: Plasmodium falciparum, 48 h, read-out: TM90C2A (3D7 Parent) Average EC50
Source text: (§1) To evaluate potential overlapping activity against known antimalarial drug targets, we performed dose-response studies with each compound against our assembled set of drug-resistant lines and their corresponding parents, in an asexual blood stage proliferation assay (Table 1). Comparisons were made to the drug-sensitive strain 3D7 when a parent was unavailable (TM90C2A, W2 and Dd2). As laboratories conducted EC50 assays with different strains and protocols, all comparisons were made between assays from the same laboratory and under the same assay conditions. Compounds displaying >5-fold EC50 shifts relative to the parent or sensitive strain were flagged as having potentially non-novel targets. Average fold shifts per strain ranged from 0.82 to 2.34, with a median of 1.23 indicating there was not common resistance to any one resistant clone. No resistance patterns were observed when classifying the compounds based on chemical structure, but this was not surprising given the diversity of compounds chosen. On the other hand, given that these confirmed compounds were derived from larger unconfirmed hit lists to which some filtration criteria may have been applied (for example, elimination of obvious dihydrofolate reductase inhibitors[32]), some[10][11][12][13] pre-existing bias may exist in the set.
(§2) The 48-h assay was carried out in a 96-well format following standard methods using the ^3H-hypoxanthine incorporation assay. The raw EC50 values corresponding to this assay can be found in Supplementary Data 3. Briefly, this assay relies on the parasite incorporation of labelled hypoxanthine that is proportional to P. falciparum growth. A culture of parasitized RBCs (0.5% parasitemia with a percentage of ring stage higher than 70% of total parasitemia, 2.0% haematocrit) in RPMI-1640, […] and 5 μM hypoxanthine was exposed to drug serial dilutions. Plates were incubated for 24 h at 37 °C, 5% CO2, 5% O2 and 90% N2. After 24 h of incubation, ^3H-hypoxanthine was added and plates were incubated for an additional 24-h period. After that, parasites were harvested on a glass fibre filter using a TOMTEC Cell Harvester 96. Filters were dried and melt-on scintillator sheets were used to determine the incorporation of ^3H-hypoxanthine. Radioactivity was measured using a microbeta counter. Data were normalized using the incorporation of the positive (parasitized RBCs without drug) and negative (same culture with artesunate at 2 μM) controls. All assays were conducted in triplicate using three independently grown cultures, and EC50 values were determined using the XLfit add-in module for Excel (version 2.3.1) from Grafit (version 5.3.1.3), where parameter h is the assay hill slope, x is the compound concentration and y is the inhibition of growth effect. The XLfit equation is: […]
EC50 values for each strain were compared with those of the corresponding parent strain to determine fold-shift changes and identify resistance. To minimize the cause variance between assays, all comparisons were conducted between strains assayed under identical conditions. A one-way ANOVA followed by a Dunnet's post-test was conducted in GraphPad Prism to identify significant changes between the parent and resistant strain.

W2 = assay: Cross-resistance EC50 assay, W2 parent; format: cell-based, Plasmodium falciparum; conditions: Plasmodium falciparum, 48 h, read-out: W2F6 (PARENT) Average EC50
Source text: (§3) Multidrug resistance alleles, including mutations in P. falciparum chloroquine resistance transporter (pfcrt) and P. falciparum multi-drug resistance transporter 1 (pfmdr1) are very common in field isolates. Therefore, we sought to assess the degree to which pre-existing resistance alleles would contribute to a loss of potency for this diverse collection of small molecule compounds. Fifteen clones derived from three main parent lines were chosen to maximize diversity in mutated pathways and genetic backgrounds, thus representing the variety of resistance seen in the field: 3D7 (ref. [23]), W2 (ref. [24]) or Dd2 (ref. [25]). The 3D7 line originates from the clone of a Netherlands clinical isolate strain[23][26] and is generally considered to be drug sensitive, though it does convey resistance to sulfadoxine. Conversely, W2 (ref. [24], [27]) and Dd2 (ref. [25]) are multi-drug-resistant lines originating from the Indochina III/CDC isolate, which contain point mutations in pfcrt as well as amplifications in pfmdr1 and GTP cyclohydrolase.
as §1, §2
(§4) Alternatively, a SYBR Green-based proliferation approach was used for the 72-h assay, as previously described. […]

3D7 = assay: Cross-resistance EC50 assay, 3D7 parent / sensitive strain; format: cell-based; conditions: Plasmodium falciparum, hypoxanthine 48-hour assay, synchronized parasites, 96-well format
Source text: as §3, §1, §2, §4

P. falciparum [2] = assay: Rate of killing (parasite viability) assay; format: cell-based, Plasmodium falciparum; conditions: profile compared with chloroquine, pyrimethamine, atovaquone; 48 h treatment
Method: To identify whether selection success could be predicted by compound speed of action, and to gain a greater insight into the potential mechanisms of action, assays were performed to test the killing rate (Supplementary Data 1)[33]. To quantify the killing rate, viability time-course profiles for each compound were compared with antimalarials known to have fast (chloroquine), moderate (pyrimethamine) or slow (atovaquone) rate of action. These rates were then compared with other compound characteristics, including cross-resistance profile, selection success, potency and structural characteristics to identify any possible trends. […] One compound's rate of killing, MMV666080, was unidentifiable due to compound availability. No correlation was seen between compound structure and speed of action. Additionally, there was no correlation found between killing rate and compound potency against 3D7, nor between potency and selection success (Supplementary Fig. 2).
Rate of killing was determined for each compound following a previously described methodology, which uses the invasion of fresh erythrocytes as surrogate of parasite viability. Briefly, parasites were treated with compounds for 48 h. Compound was washed out and fresh-labelled erythrocytes added to the treated parasites. Double stained erythrocytes (RBC label plus parasite DNA label) were quantified and per cent of survival determined.

P. falciparum [3] = system: P. falciparum; set-up: method as in PMID 26542470; conditions: known rate of action; cited from earlier work
[4] = system: P. berghei exoerythrocytic forms; assay: Liver-stage P. berghei hepatocyte invasion and development assay (luminescence, HepG2); format: cell-based, Plasmodium berghei; conditions: Plasmodium berghei, HepG2, text values; read-out: Liver stage EC50 (PfLuc EC50)
Source text: (§5) As drugs that eliminate multiple stages of the parasite lifecycle will be critical components in global efforts to eliminate malaria, we were interested in knowing whether the compounds in our study had additional activities against either the liver and/or transmission stages of the parasite lifecycle. To determine this, we first evaluated the compounds in additional phenotypic assays. The first assay was a P. berghei hepatocyte invasion and development assay, which predicts causal prophylactic activity. Hepatocyte toxicity was additionally tested to identify false-positive activity in the liver stage due to host-cell toxicity. Assays were executed in duplicate using a 12-point EC50 curve at starting concentrations of 5 μM or 50 μM (Supplementary Table 1).
(§6) Liver-stage activity was determined by pretreating hepatic human cells (HepG2) for 2 h with compound in 1,536-well plates infected with freshly dissected P. berghei sporozoites. After 48 h of incubation, the viability of P. berghei exoerythrocytic forms was measured by luminescence reaction light output using BrightGlo (Promega). Varying levels of compound concentration were used (5 μM or 50 μM) due to the stock concentration supplied.

Hepatocyte toxicity = format: cell-based, human; conditions: human; read-out: HepG2 EC50 (hepatocyte toxicity)
Source text: as §5, §6

[5] = system: Stage 5 gametocytes from P. falciparum NF54; assay: Late-stage (stage V) gametocyte survival assay, MitoTracker; format: cell-based, Plasmodium falciparum; conditions: Plasmodium falciparum; P. falciparum NF54, 72 h; read-out: Stage 5 Gametocyte EC50
Method: The second assay was a late-stage (stage V) gametocyte survival assay, which predicts transmission-blocking activity. […] Positive and negative control compounds included puromycin (0.61±0.11 μM) and atovaquone (> 12.50 μM), respectively.
To test sexual-stage activity, compounds were tested against late-stage gametocytes using a MitoTracker fluorescent-based assay. Specifically, synchronized stage V gametocytes were incubated with compound for 72 h. MitoTracker Red CMXRos (Life Technologies) was added to each well (final concentration: 500 nM) together with saponin to lyse the RBCs. Each plate was then imaged with an Operetta High Content Imaging System (Perkin Elmer) for fluorescence (590–640 nm). Varying levels of compound concentration were used (1.25 μM or 12.5 μM) due to the stock concentration supplied.
The gametocytocidal activity was measured using high-content image analysis software (Harmony, Perkin Elmer). The readout was based on number of metabolically active gametocytes per well.

[6] = system: MMV026596-selected cultures (parental line 3D7); assay: EC50 on cultures selected with MMV026596; format: cell-based, Plasmodium falciparum; conditions: hypersensitivity of cultures after 100 days of MMV026596 selection
Source text: While we found an overall lack of pre-existing resistance, analysing the onset of resistance was critical, as compounds resulting in rapid resistance are not ideal for clinical development. We therefore sought to create drug-resistant parasites using a variety of different selection methods. We implemented either a high-dose method or a ramp-up/pulse method for our in vitro selections. Two of the 50 compounds—MMV028895 and MMV665824—were removed from the selection study during experimentation. […] Out of the remaining 48 compounds, resistant parasites were obtained for 23 (Supplementary Data 1). As each selection was performed in triplicate with three independent cultures, we succeeded in generating a total of 66 resistant cultures. Parasites resistant to MMV026596 were not obtained despite 100 days of selection, but the cultures acquired hypersensitivity to mefloquine with a 10-fold reduction in EC50 compared with its parental line, 3D7. For the remaining 24 compounds, acquisition of resistant parasites was unsuccessful despite numerous attempts over an extensive period of time.

COc1ccc(NC(=O)N2CCCCN3[C@H](CO)[C@H](c4ccc(C#Cc5ccccc5)cc4)[C@@H]3C2)cc1 [BRD3444]
EC50 [1]: 37 nM
EC50 (W2): 31 nM
EC50 (3D7; strain 3D7 (parent), read-out: 3D7 (PARENT) Average EC50): 45 nM
EC50 (3D7; strain 3D7-C9-WT (parent of PfATP4 Mut3), read-out: 3D7-C9-WT (PARENT) Average EC50): 35 nM

Cn1c(C(=O)c2cccc3ccccc23)nc2ccccc21 [MMV665824]
Killing Rate (P. falciparum [2]): ATQ (slow)

O=C1C(O)=C([C@H]2CC[C@H](c3ccc(Cl)cc3)CC2)C(=O)c2ccccc21 [atovaquone, reference compound]
rate of action of comparator antimalarials (P. falciparum [3]): slow
EC50 [4]: 0.419 ± 0.044 nM
EC50 (Hepatocyte toxicity): 7720 ± 1370 nM
EC50 [5]: > 12500 nM

CCN(CC)CCCC(C)Nc1ccnc2cc(Cl)ccc12 (stereo not drawn) [chloroquine]
rate of action of comparator antimalarials (P. falciparum [3]): fast

OC(c1cc(C(F)(F)F)nc2c(C(F)(F)F)cccc12)C1CCCCN1 (stereo not drawn) [mefloquine]
reduction in EC50 compared with parental line 3D7 [6]: 10 fold

COc1ccc(C[C@H](N)C(=O)N[C@H]2[C@@H](O)[C@H](n3cnc4c(N(C)C)ncnc43)O[C@@H]2CO)cc1 [puromycin, reference compound]
EC50 [4]: 32.7 ± 29.7 nM
EC50 (Hepatocyte toxicity): 254 ± 36.6 nM
EC50 [5]: 610 ± 110 nM

CCc1nc(N)nc(N)c1-c1ccc(Cl)cc1 [pyrimethamine]
rate of action of comparator antimalarials (P. falciparum [3]): moderate
